{"source": "ChEMBL document CHEMBL5365520", "about": "“Unlocking DCAFs To Catalyze Degrader Development: An Arena for Innovative Approaches” (J Med Chem, 2023)", "key": {"[1]": {"target": "von Hippel-Lindau disease tumor suppressor/Bromodomain-containing protein 4 (Homo sapiens, UniProt O60885+P40337)", "sequence (P40337 whole entry, looked up, other chains not shown)": "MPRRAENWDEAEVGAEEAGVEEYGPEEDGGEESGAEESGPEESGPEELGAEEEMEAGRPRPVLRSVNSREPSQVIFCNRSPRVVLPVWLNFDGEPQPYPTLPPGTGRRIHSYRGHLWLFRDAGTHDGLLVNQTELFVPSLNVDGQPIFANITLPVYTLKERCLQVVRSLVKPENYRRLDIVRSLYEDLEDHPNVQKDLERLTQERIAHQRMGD", "test": "PROTAC activity at VHL/BRD4 in human LNCaP cells assessed as reduction in protein degradation measured after 6 hrs by Western blot analysis", "assay_type": "cell-based"}, "[2]": {"target": "T1, DDB1- and CUL4-associated factor 16/Bromodomain-containing protein 4 (Homo sapiens, UniProt O60885+Q9NXF7)", "T1 sequence (Q9NXF7 whole entry, looked up, other chains not shown)": "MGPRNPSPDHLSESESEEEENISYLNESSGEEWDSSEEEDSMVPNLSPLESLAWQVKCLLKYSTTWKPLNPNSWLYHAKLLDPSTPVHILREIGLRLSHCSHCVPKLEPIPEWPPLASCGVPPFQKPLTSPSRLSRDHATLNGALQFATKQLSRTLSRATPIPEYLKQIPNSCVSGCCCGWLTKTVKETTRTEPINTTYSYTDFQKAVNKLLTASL", "test": "PROTAC activity at DCAF16/BRD4 in human PC-3 cells assessed as reduction in protein degradation", "assay_type": "cell-based"}, "[3]": {"target": "T1, DDB1- and CUL4-associated factor 16/Bromodomain-containing protein 4", "test": "PROTAC activity at DCAF16/BRD4 in human PC-3 cells assessed as maximal degradation relative to control", "assay_type": "cell-based"}, "[4]": {"target": "DNA damage-binding protein 1 (Homo sapiens, UniProt Q16531)", "sequence (Q16531 whole entry)": "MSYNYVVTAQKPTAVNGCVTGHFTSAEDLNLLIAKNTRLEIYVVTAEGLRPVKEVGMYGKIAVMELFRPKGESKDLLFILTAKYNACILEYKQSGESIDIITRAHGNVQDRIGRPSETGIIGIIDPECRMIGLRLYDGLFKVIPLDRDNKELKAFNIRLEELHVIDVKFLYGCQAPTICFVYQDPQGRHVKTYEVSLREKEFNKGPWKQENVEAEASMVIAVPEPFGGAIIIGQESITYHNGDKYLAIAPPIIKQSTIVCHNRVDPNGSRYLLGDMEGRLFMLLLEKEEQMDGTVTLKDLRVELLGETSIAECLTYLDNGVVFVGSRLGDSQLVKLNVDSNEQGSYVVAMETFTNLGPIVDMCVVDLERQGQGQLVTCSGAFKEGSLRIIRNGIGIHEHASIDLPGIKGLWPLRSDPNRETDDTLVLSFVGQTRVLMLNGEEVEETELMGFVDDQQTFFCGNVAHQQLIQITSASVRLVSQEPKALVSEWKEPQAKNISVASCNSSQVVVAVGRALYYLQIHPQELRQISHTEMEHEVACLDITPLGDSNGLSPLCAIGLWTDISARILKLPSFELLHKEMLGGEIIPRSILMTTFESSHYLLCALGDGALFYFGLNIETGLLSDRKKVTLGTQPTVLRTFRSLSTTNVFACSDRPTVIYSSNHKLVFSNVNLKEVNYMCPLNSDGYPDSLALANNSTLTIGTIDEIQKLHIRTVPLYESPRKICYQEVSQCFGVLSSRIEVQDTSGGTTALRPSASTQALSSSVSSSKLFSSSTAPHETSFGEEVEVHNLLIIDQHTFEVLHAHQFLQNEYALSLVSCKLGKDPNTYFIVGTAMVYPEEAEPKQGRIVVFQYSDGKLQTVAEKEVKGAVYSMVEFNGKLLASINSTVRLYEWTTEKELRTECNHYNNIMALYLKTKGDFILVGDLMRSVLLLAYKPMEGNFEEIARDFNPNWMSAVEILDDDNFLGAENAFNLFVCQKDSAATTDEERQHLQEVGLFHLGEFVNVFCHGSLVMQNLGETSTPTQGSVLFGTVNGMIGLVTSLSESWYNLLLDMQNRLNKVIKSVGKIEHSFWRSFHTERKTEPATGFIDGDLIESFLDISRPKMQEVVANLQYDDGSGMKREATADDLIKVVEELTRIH", "test": "Binding affinity to N-terminal His6-tagged human DDB1 expressed in baculovirus infected Hi-5 insect cells assessed as dissociation constant by SPR analysis"}, "[5]": {"test": "Binding affinity to biotinylated human DDA1/DDB1 (398 to 701 residues)/N-terminal His-ZZ-3C-tagged DCAF15 expressed in baculovirus infected Sf21 cells immobilized on SA chip assessed as dissociation constant by SPR analysis"}, "[6]": {"test": "Binding affinity to biotinylated human DDA1/DDB1 (398 to 701 residues)/N-terminal His-ZZ-3C-tagged DCAF15/RBM39 RRM2 domain expressed in baculovirus infected Sf21 cells immobilized on SA chip assessed as dissociation constant by SPR analysis"}, "[7]": {"target": "DCAF1-BRD9 (Homo sapiens, UniProt Q9H8M2+Q9Y4B6)", "sequence (Q9H8M2 whole entry)": "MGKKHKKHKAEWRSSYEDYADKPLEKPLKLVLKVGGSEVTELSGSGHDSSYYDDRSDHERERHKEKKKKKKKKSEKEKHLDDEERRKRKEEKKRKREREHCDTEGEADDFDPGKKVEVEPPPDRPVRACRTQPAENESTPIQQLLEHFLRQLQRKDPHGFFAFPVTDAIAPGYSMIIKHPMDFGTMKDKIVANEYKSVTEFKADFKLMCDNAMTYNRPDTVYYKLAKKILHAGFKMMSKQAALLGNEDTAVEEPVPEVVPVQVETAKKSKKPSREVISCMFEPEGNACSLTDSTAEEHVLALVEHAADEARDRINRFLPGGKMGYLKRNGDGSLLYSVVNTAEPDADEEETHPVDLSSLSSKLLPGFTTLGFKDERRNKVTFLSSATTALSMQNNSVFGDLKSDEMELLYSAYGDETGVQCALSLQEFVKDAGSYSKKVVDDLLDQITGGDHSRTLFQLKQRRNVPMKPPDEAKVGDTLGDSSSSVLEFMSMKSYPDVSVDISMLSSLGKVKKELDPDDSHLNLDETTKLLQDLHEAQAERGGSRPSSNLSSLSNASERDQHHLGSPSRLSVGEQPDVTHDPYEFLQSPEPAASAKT", "sequence (Q9Y4B6 whole entry)": "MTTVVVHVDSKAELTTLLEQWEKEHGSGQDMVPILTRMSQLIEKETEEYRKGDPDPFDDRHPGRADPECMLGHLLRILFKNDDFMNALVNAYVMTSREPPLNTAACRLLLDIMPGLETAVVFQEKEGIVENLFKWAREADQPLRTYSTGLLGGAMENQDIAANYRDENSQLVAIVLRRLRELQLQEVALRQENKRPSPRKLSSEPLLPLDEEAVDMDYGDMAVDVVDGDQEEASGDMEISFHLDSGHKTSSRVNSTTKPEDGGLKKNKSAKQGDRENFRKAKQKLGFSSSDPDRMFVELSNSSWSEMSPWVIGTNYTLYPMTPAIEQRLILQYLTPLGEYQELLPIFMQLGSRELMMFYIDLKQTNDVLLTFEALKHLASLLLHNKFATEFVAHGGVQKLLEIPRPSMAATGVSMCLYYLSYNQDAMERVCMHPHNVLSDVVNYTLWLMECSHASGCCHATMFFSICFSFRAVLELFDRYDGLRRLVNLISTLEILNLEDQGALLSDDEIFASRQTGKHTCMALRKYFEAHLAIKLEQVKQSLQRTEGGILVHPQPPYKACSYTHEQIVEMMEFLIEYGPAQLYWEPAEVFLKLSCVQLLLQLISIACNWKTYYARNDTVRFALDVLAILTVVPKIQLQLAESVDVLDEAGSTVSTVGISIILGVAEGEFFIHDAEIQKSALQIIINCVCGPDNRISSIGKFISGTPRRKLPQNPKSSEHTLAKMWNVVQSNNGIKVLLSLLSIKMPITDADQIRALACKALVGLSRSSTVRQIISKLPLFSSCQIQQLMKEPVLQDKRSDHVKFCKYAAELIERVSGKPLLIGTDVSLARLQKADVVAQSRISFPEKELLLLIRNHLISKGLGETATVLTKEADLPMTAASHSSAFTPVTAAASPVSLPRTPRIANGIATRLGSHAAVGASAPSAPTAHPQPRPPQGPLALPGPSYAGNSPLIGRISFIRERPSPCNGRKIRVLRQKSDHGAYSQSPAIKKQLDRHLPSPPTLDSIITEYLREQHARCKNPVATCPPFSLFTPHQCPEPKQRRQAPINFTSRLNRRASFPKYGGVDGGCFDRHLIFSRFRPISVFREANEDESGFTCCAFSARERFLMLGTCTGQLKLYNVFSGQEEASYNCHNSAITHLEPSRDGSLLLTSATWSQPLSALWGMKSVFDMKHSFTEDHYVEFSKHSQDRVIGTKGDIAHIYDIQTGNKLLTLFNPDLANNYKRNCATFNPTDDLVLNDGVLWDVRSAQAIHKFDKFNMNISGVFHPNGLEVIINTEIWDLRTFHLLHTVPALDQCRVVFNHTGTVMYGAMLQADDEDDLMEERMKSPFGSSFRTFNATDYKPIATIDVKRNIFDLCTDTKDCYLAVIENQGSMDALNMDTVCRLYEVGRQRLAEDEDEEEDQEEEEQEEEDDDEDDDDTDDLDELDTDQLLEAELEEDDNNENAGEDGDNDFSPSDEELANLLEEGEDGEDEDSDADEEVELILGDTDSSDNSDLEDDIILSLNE", "test": "PROTAC activity at DCAF1/BRD9 in HEK293T cells co expressing HiBit/FF/CAS9 assessed as reduction of protein degradation measured after 6 hrs by immunoblotting analysis", "assay_type": "cell-based"}, "[8]": {"target": "DCAF11-BRD4 (Homo sapiens) (UniProt O60885+Q8TEB1)", "sequence (Q8TEB1 whole entry, looked up, other chains not shown)": "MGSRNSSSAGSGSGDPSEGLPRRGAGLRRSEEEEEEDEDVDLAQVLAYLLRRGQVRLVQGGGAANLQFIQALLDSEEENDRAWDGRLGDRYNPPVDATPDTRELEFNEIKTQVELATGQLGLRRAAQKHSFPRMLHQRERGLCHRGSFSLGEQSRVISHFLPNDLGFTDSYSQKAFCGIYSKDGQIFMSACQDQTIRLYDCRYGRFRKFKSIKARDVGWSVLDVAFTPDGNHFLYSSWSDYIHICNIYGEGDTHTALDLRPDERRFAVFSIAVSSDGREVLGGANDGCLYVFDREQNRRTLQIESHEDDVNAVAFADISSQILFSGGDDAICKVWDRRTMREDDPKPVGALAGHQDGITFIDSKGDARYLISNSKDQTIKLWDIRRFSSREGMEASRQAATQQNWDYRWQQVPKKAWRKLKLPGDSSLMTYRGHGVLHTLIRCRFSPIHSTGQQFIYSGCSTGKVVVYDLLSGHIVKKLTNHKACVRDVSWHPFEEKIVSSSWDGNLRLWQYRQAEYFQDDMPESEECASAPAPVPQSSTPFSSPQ", "test": "PROTAC activity at DCAF11/BRD4 in HEK293T cells assessed as reduction of protein degradation at 1 uM measured after 24 hrs relative to control", "assay_type": "cell-based", "design": "scale not given: the % may be the effect or the level left"}}, "data": [{"smiles": "Cc1sc2c(c1C)C(c1ccc(-c3ccc(C(=O)NCc4ccc(S(=O)(=O)Nc5ccc(C)c6c(C#N)c[nH]c56)cc4)cc3)cc1)=N[C@@H](CC(=O)OC(C)(C)C)c1nnc(C)n1-2", "values": [{"measurement": "EC50", "setting": "[1]", "value": 0.00015, "unit": "µM"}]}, {"smiles": "Cc1sc2c(c1C)C(c1ccc(C#CCN)cc1)=N[C@@H](CC(=O)OC(C)(C)C)c1nnc(C)n1-2", "values": [{"measurement": "DC50", "setting": "[2]", "value": 0.0014, "unit": "µM"}, {"measurement": "Emax", "setting": "[3]", "value": 84, "unit": "%"}]}, {"smiles": "Cc1cc(NCCOCCOCCOCCOCCOCCN)ccc1C(=O)Nc1nc(C)c(C)s1", "values": [{"measurement": "Kd", "setting": "[4]", "value": "< 20", "unit": "µM"}]}, {"smiles": "NS(=O)(=O)c1ccc(S(=O)(=O)Nc2cccc3c(Cl)c[nH]c23)cc1", "note": "[INDISULAM]", "values": [{"measurement": "Kd", "setting": "[5]", "value": "> 50", "unit": "µM"}, {"measurement": "Kd", "setting": "[6]", "value": 0.135, "unit": "µM"}]}, {"smiles": "COc1cc(-c2cncc3c(=O)n(C)ccc23)c(OC)cc1CN1CCC(OCCCCCC(=O)N2CCN(c3ccc4c(NCCN)nc(C5(c6ccc(Cl)cc6)CCCCC5)nc4c3)CC2)CC1", "values": [{"measurement": "EC50", "setting": "[7]", "value": "~0.5", "unit": "µM"}]}, {"smiles": "Cc1sc2c(c1C)C(c1ccc(-c3cccc(NC(=O)c4cn5ccccc5n4)c3)cc1)=N[C@@H](CC(N)=O)c1nnc(C)n1-2", "values": [{"measurement": "Activity", "setting": "[8]", "value": 95, "unit": "%"}]}]}
